Laboratory results reported in the supplement of paper PMC10307832.

Experiments:
Assay in all cases: relative viability (nuclei count vs DMSO), 5 days (fraction); higher = more cells survive
PC-14 = system: PC-14
Procedure, shortened: (§1)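 For relative viability, nuclei counts in treated wells were divided by those in vehicle wells. Lung cancer cell lines had been pin-tool dosed in 1536-well plates the day after seeding and cultured for 5 days, then fixed and stained in one step (final 0.05% Triton X-100, 1% formaldehyde, 1 ug/ml Hoechst) and imaged at 4×. Doses were one drug alone or a fixed anchor-drug dose plus five library-drug doses (not always all listed) in √10 steps, and values are duplicate-plate medians.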

NCI-H1792 = system: NCI-H1792
Procedure, shortened: as §1

NCI-H650 = system: NCI-H650
Procedure, shortened: as §1

LCLC-103H = system: LCLC-103H
Procedure, shortened: as §1

NCI-H460 = system: NCI-H460
Procedure, shortened: as §1

NCI-H596 = system: NCI-H596
Procedure, shortened: as §1

NCI-H1651 = system: NCI-H1651
Procedure, shortened: as §1

LXF-289 = system: LXF-289
Procedure, shortened: as §1

NCI-H1355 = system: NCI-H1355
Procedure, shortened: as §1

SK-MES-1 = system: SK-MES-1
Procedure, shortened: as §1

RERF-LC-KJ = system: RERF-LC-KJ
Procedure, shortened: as §1

NCI-H1755 = system: NCI-H1755
Procedure, shortened: as §1

NCI-H441 = system: NCI-H441
Procedure, shortened: as §1

NCI-H727 = system: NCI-H727
Procedure, shortened: as §1

NCI-H3122 = system: NCI-H3122
Procedure, shortened: as §1

NCI-H1915 = system: NCI-H1915
Procedure, shortened: as §1

NCI-H661 = system: NCI-H661
Procedure, shortened: as §1

NCI-H520 = system: NCI-H520
Procedure, shortened: as §1

NCI-H1563 = system: NCI-H1563
Procedure, shortened: as §1

NCI-H322M = system: NCI-H322M
Procedure, shortened: as §1

NCI-H2347 = system: NCI-H2347
Procedure, shortened: as §1

SMILES: CC1(C)CCC(c2ccc(Cl)cc2)=C(CN2CCN(c3ccc(C(=O)NS(=O)(=O)c4ccc(N[C@H](CCN5CCOCC5)CSc5ccccc5)c(S(=O)(=O)C(F)(F)F)c4)cc3)CC2)C1 [Navitoclax] + C[C@]1(O)C[C@@H](c2nc(-c3ccc4ccc(-c5ccccc5)nc4c3)c3c(N)nccn32)C1 [Linsitinib] (partner 1 µM)
- relative viability (PC-14; first compound 0.005 µM): 1.03
- relative viability (PC-14; first compound 0.01581 µM): 1.04
- relative viability (PC-14; first compound 0.05 µM): 1.07
- relative viability (PC-14; first compound 0.1581 µM): 0.926
- relative viability (PC-14; first compound 0.5 µM): 0.977
- relative viability (NCI-H1792; first compound 0.005 µM): 0.554
- relative viability (NCI-H1792; first compound 0.01581 µM): 0.629
- relative viability (NCI-H1792; first compound 0.05 µM): 0.414
- relative viability (NCI-H1792; first compound 0.1581 µM): 0.539
- relative viability (NCI-H1792; first compound 0.5 µM): 0.609
- relative viability (NCI-H650; first compound 0.005 µM): 0.703
- relative viability (NCI-H650; first compound 0.01581 µM): 0.817
- relative viability (NCI-H650; first compound 0.05 µM): 0.97
- relative viability (NCI-H650; first compound 0.1581 µM): 0.767
- relative viability (NCI-H650; first compound 0.5 µM): 0.846
- relative viability (LCLC-103H; first compound 0.005 µM): 1.07
- relative viability (LCLC-103H; first compound 0.01581 µM): 1.19
- relative viability (LCLC-103H; first compound 0.05 µM): 1.09
- relative viability (LCLC-103H; first compound 0.1581 µM): 1.03
- relative viability (LCLC-103H; first compound 0.5 µM): 1.02
- relative viability (NCI-H460; first compound 0.005 µM): 0.77
- relative viability (NCI-H460; first compound 0.01581 µM): 0.825
- relative viability (NCI-H460; first compound 0.05 µM): 0.919
- relative viability (NCI-H460; first compound 0.1581 µM): 0.896
- relative viability (NCI-H460; first compound 0.5 µM): 0.744
- relative viability (NCI-H596; first compound 0.005 µM): 1.09
- relative viability (NCI-H596; first compound 0.01581 µM): 1.09
- relative viability (NCI-H596; first compound 0.05 µM): 0.722
- relative viability (NCI-H596; first compound 0.1581 µM): 1
- relative viability (NCI-H596; first compound 0.5 µM): 1.02
- relative viability (NCI-H1651; first compound 0.005 µM): 0.945
- relative viability (NCI-H1651; first compound 0.01581 µM): 1.25
- relative viability (NCI-H1651; first compound 0.1581 µM): 0.966
- relative viability (NCI-H1651; first compound 0.5 µM): 0.937
- relative viability (LXF-289; first compound 0.005 µM): 0.971
- relative viability (LXF-289; first compound 0.01581 µM): 0.974
- relative viability (LXF-289; first compound 0.05 µM): 0.84
- relative viability (LXF-289; first compound 0.1581 µM): 0.978
- relative viability (LXF-289; first compound 0.5 µM): 0.966
- relative viability (NCI-H1355; first compound 0.005 µM): 0.831
- relative viability (NCI-H1355; first compound 0.01581 µM): 0.892
- relative viability (NCI-H1355; first compound 0.05 µM): 0.817
- relative viability (NCI-H1355; first compound 0.1581 µM): 0.775
- relative viability (NCI-H1355; first compound 0.5 µM): 0.834
- relative viability (SK-MES-1; first compound 0.005 µM): 1.03
- relative viability (SK-MES-1; first compound 0.01581 µM): 1.19
- relative viability (SK-MES-1; first compound 0.05 µM): 1.19
- relative viability (SK-MES-1; first compound 0.1581 µM): 1.02
- relative viability (SK-MES-1; first compound 0.5 µM): 1.1
- relative viability (RERF-LC-KJ; first compound 0.005 µM): 0.905
- relative viability (RERF-LC-KJ; first compound 0.01581 µM): 0.859
- relative viability (RERF-LC-KJ; first compound 0.05 µM): 0.927
- relative viability (RERF-LC-KJ; first compound 0.1581 µM): 0.915
- relative viability (RERF-LC-KJ; first compound 0.5 µM): 0.904
- relative viability (NCI-H1755; first compound 0.005 µM): 0.969
- relative viability (NCI-H1755; first compound 0.01581 µM): 0.993
- relative viability (NCI-H1755; first compound 0.05 µM): 0.954
- relative viability (NCI-H1755; first compound 0.1581 µM): 0.968
- relative viability (NCI-H1755; first compound 0.5 µM): 1.02
- relative viability (NCI-H441; first compound 0.005 µM): 0.449
- relative viability (NCI-H441; first compound 0.01581 µM): 0.587
- relative viability (NCI-H441; first compound 0.05 µM): 0.412
- relative viability (NCI-H441; first compound 0.1581 µM): 0.44
- relative viability (NCI-H441; first compound 0.5 µM): 0.706
- relative viability (NCI-H727; first compound 0.005 µM): 0.299
- relative viability (NCI-H727; first compound 0.01581 µM): 0.358
- relative viability (NCI-H727; first compound 0.1581 µM): 0.284
- relative viability (NCI-H727; first compound 0.5 µM): 0.162
- relative viability (NCI-H3122; first compound 0.005 µM): 1.11
- relative viability (NCI-H3122; first compound 0.01581 µM): 1.08
- relative viability (NCI-H3122; first compound 0.05 µM): 1.13
- relative viability (NCI-H3122; first compound 0.1581 µM): 0.985
- relative viability (NCI-H3122; first compound 0.5 µM): 1.02
- relative viability (NCI-H1915; first compound 0.005 µM): 1.1
- relative viability (NCI-H1915; first compound 0.01581 µM): 1.12
- relative viability (NCI-H1915; first compound 0.05 µM): 1.07
- relative viability (NCI-H1915; first compound 0.1581 µM): 1.05
- relative viability (NCI-H1915; first compound 0.5 µM): 1.06
- relative viability (NCI-H661; first compound 0.005 µM): 0.524
- relative viability (NCI-H661; first compound 0.01581 µM): 0.601
- relative viability (NCI-H661; first compound 0.05 µM): 0.575
- relative viability (NCI-H661; first compound 0.1581 µM): 0.552
- relative viability (NCI-H661; first compound 0.5 µM): 0.5
- relative viability (NCI-H520; first compound 0.005 µM): 0.891
- relative viability (NCI-H520; first compound 0.01581 µM): 1.15
- relative viability (NCI-H520; first compound 0.05 µM): 1.12
- relative viability (NCI-H520; first compound 0.1581 µM): 0.832
- relative viability (NCI-H520; first compound 0.5 µM): 0.771
- relative viability (NCI-H1563; first compound 0.005 µM): 0.99
- relative viability (NCI-H1563; first compound 0.01581 µM): 1.13
- relative viability (NCI-H1563; first compound 0.05 µM): 1.17
- relative viability (NCI-H1563; first compound 0.1581 µM): 1.24
- relative viability (NCI-H1563; first compound 0.5 µM): 1.27
- relative viability (NCI-H322M; first compound 0.005 µM): 0.79
- relative viability (NCI-H322M; first compound 0.01581 µM): 0.992
- relative viability (NCI-H322M; first compound 0.05 µM): 0.96
- relative viability (NCI-H322M; first compound 0.1581 µM): 0.953
- relative viability (NCI-H322M; first compound 0.5 µM): 0.921
- relative viability (NCI-H2347; first compound 0.005 µM): 0.94
- relative viability (NCI-H2347; first compound 0.01581 µM): 1.03
- relative viability (NCI-H2347; first compound 0.05 µM): 0.876
- relative viability (NCI-H2347; first compound 0.1581 µM): 0.954
- relative viability (NCI-H2347; first compound 0.5 µM): 0.973
